The numbers were not newly measured in patent US20220213156A1, “Peptides for use in therapy or prophylaxis of Herpesviridae-infections” (priority 2019, published 2022), which cites them from elsewhere.

The subject of the series is multidrug resistant CMV isolate (H815-2006). The settings on record: isolate H815-2006 with UL97 L595S and UL54 V715M; cited from earlier work.

pIC50: −log10 of the molar value. Values joined by “and” are separate entries in the source; they are usually repeats but may differ in a detail not shown here. Identical values can stand only once. Some results are limits rather than exact numbers.

As a reminder, the pIC50 is −log10 of the IC50, conventionally taken in molar units. On to `Nc1nc(O)c2ncn(COC(CO)CO)c2n1` [GCV, Ganciclovir], for which the pIC50 is < 4.52 and 4.50.
